One data set concerns the target DnaK (Escherichia coli, UniProt P0A6Y8). Nature of the data set: biochemical. As for the experimental part: (§1) RNAse T1 contains a Ser-Pro sequence with a cis conformation at the sequence site 38/39. […] In detail, the protein is unfolded by suitable additives and the renaturation rate is measured and registered after removal of the additives, e.g. by rapid dilution. As is shown (Scholz et al., Biol. chem. 1998, March; 379(3): 361-5), the exchange of the prolin 39 with an alanine (P39A) leads to a protein mutant whose foldback rate is […] influenced by this peptide bond. Added APIase, dependent on concentration, catalyses the isomerisation of this non-prolyl peptide bond and, thus, the foldback of the P39A mutant.
(§2) […] RNAse T1 P39A was incubated with 5 M guanidinium-Cl and 0.1 M Tris-HCl at pH 8 at 15° C. for 60 min. The foldback at 15° C. was started by a 40-fold dilution of the unfolded protein in foldback buffer (0.1 Tris-HCl, 50 mM KCl, 11 mM MgCl2) at pH 8. The foldback was determined as increase of the protein fluorescence at 320 nm (10 nm width of band) with excitation of 278 nm (1.5 nm width of band) with a Jobin-Yvon-Spex Fluoromax-2 fluorescence spectrometer.

The target in another data set is T1, APIase activity of DnaK (Escherichia coli, UniProt P0A6Y8).
T1 construct: purchased SIGMA-ALDRICH CHEMIE GmbH, Germany
T1 sequence (P0A6Y8 whole entry): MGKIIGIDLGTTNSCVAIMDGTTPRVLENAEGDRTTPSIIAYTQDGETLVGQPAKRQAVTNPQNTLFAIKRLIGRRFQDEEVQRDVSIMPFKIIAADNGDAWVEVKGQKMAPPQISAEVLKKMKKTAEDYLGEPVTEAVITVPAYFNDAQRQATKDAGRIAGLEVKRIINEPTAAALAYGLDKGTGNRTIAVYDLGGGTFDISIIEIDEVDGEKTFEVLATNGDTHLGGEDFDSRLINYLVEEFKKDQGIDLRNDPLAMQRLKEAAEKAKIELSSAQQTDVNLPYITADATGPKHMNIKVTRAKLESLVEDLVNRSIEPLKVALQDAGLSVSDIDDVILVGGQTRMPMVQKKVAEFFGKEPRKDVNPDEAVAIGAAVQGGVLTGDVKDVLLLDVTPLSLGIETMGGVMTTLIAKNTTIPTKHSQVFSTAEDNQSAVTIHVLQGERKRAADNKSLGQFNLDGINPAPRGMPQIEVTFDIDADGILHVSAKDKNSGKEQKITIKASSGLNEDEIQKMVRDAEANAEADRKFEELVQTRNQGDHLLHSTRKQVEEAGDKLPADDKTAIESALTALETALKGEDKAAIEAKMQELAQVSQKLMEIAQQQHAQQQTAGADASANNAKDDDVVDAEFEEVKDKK
Kind of data set: Inhibition of the APIase activity of DnaK in the spectrophotometric Ala-Leu activity test. The data set is classed as biochemical. The method, then: The peptide bond of the substrate Ala-Leu is to about 99% in the trans conformation at pH 7.4. An increase of the proton concentration of the aqueous Ala-Leu solution to about 100 mM results in a shift of the equilibrium of the conformations to a higher content of the peptide with the cis conformation. […] The isomerisation rate can be measured when the substrate is subjected to a pH modification that has an influence on the cis/trans equilibrium of the substrate and when the rate of the pH modification is higher than the isomerisation rate of the substrate. In this context, the isomerisation rate corresponds to the sum of the individual rates cis to trans and trans to cis of the two conformation isomers of the substrate. In the present example, a so-called Stopped-Flow device from the company Applied Photophysics Ltd. (England) is used. This spectroscopic device makes a rapid mixture of two components and, subsequently, a collection of spectroscopic data, which is rapid and […], possible. Moreover, an accompanying software makes it possible for the rate constants (kobs) to be calculated while assuming a concentration/time law that corresponds to a so-called “first-order time law”. […]

A short description of data set [1]: Stopped-flow spectroscopic test of catalysis of the cis/trans isomerisation of Ala-Leu (APIase activity). The data set is classed as biochemical.
Text: The peptide bond of the substrate Ala-Leu is to about 99% in the trans conformation at pH 7.4. […] The isomerisation rate can be measured when the substrate is subjected to a pH modification that has an influence on the cis/trans equilibrium of the substrate and when the rate of the pH modification is higher than the isomerisation rate of the substrate. In this context, the isomerisation rate corresponds to the sum of the individual rates cis to trans and trans to cis of the two conformation isomers of the substrate. In the present example, a so-called Stopped-Flow device from the company Applied Photophysics Ltd. (England) is used. This spectroscopic device makes a rapid mixture of two components and, subsequently, a collection of spectroscopic data, which is rapid and time-independent, possible. Moreover, an accompanying software makes it possible for the rate constants (kobs) to be calculated while assuming a concentration/time law that corresponds to a so-called “first-order time law”. For the detection of the catalysis, the following assay was selected: • Stock solution Ala-Leu (Bachem, Switzerland) 10 mM dissolved in Aqua dest. with pH 2.0, adjusted by means of HCl • Buffer solution: 12.5 mM Tris, 50 mM KCl, 11 mM MgCl2 with HCl adjusted to pH 8.8 DnaK (SIGMA-ALDRICH CHEMIE GmbH, Germany), or produced in a molecular biological way
After mixing the components in the Stopped-Flow device, the reaction solution had the following concentrations: 1.66 mM Ala-Leu, 10.4 mM Tris, 41.6 mM KCl, 9.2 mM MgCl2. The pH was 7.6. All the solutions were kept constant at a temperature of 25° C.
The thickness of the coating of the silica cuvets was 2 mm, the measuring wave length was 220 nm.
The following solutions were used: • Buffer solution: 12.5 mM Tris, 50 mM KCl, 11 mM MgCl2. • Substrate solution: 20 mM Ala-Leu, dissolved in Aqua dest. at pH 2.0. • DnaK stock solution: 20 μM in buffer solution a
The pH of the solution in the cuvet was 7.3 each. The error lines indicated result from three independent measurements for the determination of the rate constant kobs with a DnaK concentration.
In order to establish whether Cyp18 catalyses the cis/trans isomerisation of the dipeptide Ala-Leu, the isomerisation rate was analysed in the presence of up to 8.4 μM Cyp18: • Human Cyp18 was either bought (SIGMA-ALDRICH CHEMIE GmbH, Germany) or produced as recombinant enzyme (E. coli cultures). The cyclophilin concentration of the cyclophilin stock solution of 1.14 mM was determined by means of titration against the cyclophilin inhibitor cyclosporin A (SIGMA-ALDRICH CHEMIE GmbH, Germany). The substrate Ala-Leu (BACHEM, Switzerland) used was produced as 10 mM stock solution in water with a pH of 2.0. The buffer solution used contained a mixture of the following chemicals: 12 mM Tris, 50 mM KCl, 11 mM MgCI2 and was adjusted with HCl to a pH of 8.8. The measurement of the isomerisation rate of the substrate took place with the Stopped-Flow-Photometer (Applied Photophysics Ltd., England) at 25°C. with 228 nm using 1 cm quartz cuvets. By adding the substrate to the mixture of buffer and Cyp18, solutions were produced in the cuvet with Cyp18 concentrations of 0, 208, 416, 625, 833 and 8,330 nM and 1.66 mM Ala-Leu each with a pH of 7.9.
In a further data set the test system is RNAse T1 P39A. Kind of data set: Foldback of RNAse T1 P39A catalysed by APIase. The data set is classed as biochemical. Particulars: 1 μM DnaK, 15° C., pH 8; without APIase 6.67×10^−4. The method, then:
as §1, §2

Data set [2] can be described thus: 2D 1H NMR exchange (NOESY) measurement of cis/trans isomerisation in the pentapeptide. The class given is biochemical. Particulars: for relative intensity of the cross signal of the peptide bond Ala-Tyr / relative intensity of the cross signal of the peptide bond Tyr-Ala: 25 mM pentapeptide, pH 7.1, 278° K; for relative intensity of the cross signal of the peptide bond Ala-Tyr: no addition 3.50 ± 0.51; for relative intensity of the cross signal of the peptide bond Tyr-Ala: no addition 3.89 ± 0.32. The source says: A further possibility, only described in 1998, is the determination of the cis/trans isomerisation rate of secondary amide peptide bonds containing aromatic amino acids by means of 2D 1H NMR exchange experiments (Scherer G. et al., 1998, JACS 120:5568-5574). In Example 8, this NMR method is used to determine a catalytic acceleration of the cis/trans isomerisation of the peptide bonds Ala-Tyr and Tyr-Ala within the pentapeptide Ala-Ala-Tyr-Ala-Ala. The acceleration is accomplished by catalytic amounts of DnaK.
NMR Device: Bruker DRX-500, Equipped with z-gradient
• FIG. 8: The alanine methyl region from the two-dimensional exchange 1H-NMR spectrum of 25 mM Ala-Ala-Tyr-Ala-Ala in 25 mM Tris, 11 mM MgCl2, 50 mM KCl, 9:1H2O:D2O, pH 7.1 at 278° K. The mixing time of the phase-sensitive NOESY was 330 ms. Each FID had 184 scans. The amount of data from t1×t2=512×8192 points covered a spectral range of 5501 Hz×5482 Hz. The correction of the base line was carried out by adjustment with a polynom of fifth order in the F2 dimension. […] The experiment was carried out under identical conditions as described above. In addition, 20 μM DnaK was contained in the measuring solution.
In a further analysis of the method of the two-dimensional NOESY experiment illustrated in Example 8, the cross signals can be quantified by means of common mathematical techniques.

For data set [3] the following is noted: DnaK 250 and 1,000 nM, 10° C., pH 7.8.
Experimental: The details of Example 5 are described as follows: • Measuring device: Spectrophotometer Diodenarray HP8452A (Hewlett Packard, USA) • Substrate: Suc-Ala-Phe-Pro-Phe-NHNp (SEQ ID NO:2) (BACHEM, Switzerland) • Protease: Chymotrypsin (Merck, Germany) • Measure temperature: 10° C. • Buffer: 35 mM Hepes, pH 7.8 • Protease solution for use: 5 mg protease per ml buffer • Substrate solution for use: 35 mg substrate dissolved in 1 ml DMSO • DnaK solution for use: 30 μM in buffer • Cuvet: 1 ml quartz cuvet, thickness of layer 1 cm • Measuring wave length: 390 nm
Process: After attemperating a mixture of substrate, DnaK and buffer, the reaction is started by rapid addition and homogenous distribution of the protease solution for use. In this way, a chymotrypsin concentration of 0.83 mg/ml is achieved in the cuvet. By means of the substrate amount contained in the cuvet, a final extinction of about 0.43 is accomplished after complete turnover of the substrate. The concentrations of DnaK contained in the cuvet were 0.250 and 1,000 nM.

Consider nine compounds from US7589065B2, “Catalysis of the cis/trans-isomerisation of secondary amide peptide compounds” (Max-Planck Gesellschaft zur Forderung der Wissenschaften, …, priority 2001, dated 2009).

Sequence of DnaK (P0A6Y8 whole entry): as above

On DnaK, `CCCCCCCCCCCC(=O)NC(CC(=O)O)C(=O)O` (stereo not shown) [28/B7] yielded an IC50 of 177 µM.

`CCCCCCCCCCCC(=O)NC(Cc1c[nH]c2ccccc12)C(=O)O` (stereo not shown) [28/C8] displayed an IC50 against DnaK of 55.3 µM.

At DnaK, `CCCCCCCC/C=C\CCCCCCCC(=O)NC(CC(C)C)C(=O)NCCc1ccccc1` (stereo not shown) [30/B4] gave an IC50 of 7.5 µM.

On to `CCCCCCCCCCCCCCCC(=O)NCc1ccc(C(=O)NCC2CCC(C(=O)O)CC2)cc1` (stereo not shown) [37/B11], for which, at DnaK, the concentration for half-maximal inhibition (IC50) was 5.9 µM.

For the compound `CSCC[C@H](NC(=O)[C@H](CC(C)C)NC(=O)CNC(=O)[C@H](Cc1ccccc1)NC(=O)[C@H](Cc1ccccc1)NC(=O)[C@H](CCC(N)=O)NC(=O)[C@H](CCC(N)=O)NC(=O)[C@@H]1CCCN1C(=O)[C@H](CCCCN)NC(=O)[C@@H]1CCCN1C(=O)[C@@H](N)CCCN=C(N)N)C(N)=O` [substance P], inhibition against APIase activity of DnaK was half-maximal at 76 ± 16 µM (IC50).

Take “Cyp18: human peptidyl-prolyl cis/trans isomerase of the cyclophilin family, EC 5.2.1.8, P05092”: the “rate constants kobs of the isomerisation of Ala-Leu” value in data set [1] (Cyp18 0 to 8,330 nM, independent of concentration, 1.66 mM Ala-Leu, pH 7.9, 25° C., 228 nm) is recorded as “about 0.43±0.03 s^−1”. For the same compound, in data set [1] (up to 8.4 μM Cyp18, observation period 20 seconds), the “acceleration of the cis to trans reaction of Ala-Leu (in words)” value is “no acceleration of the cis to trans reaction could be observed”.

As to “DnaK: protein with APIase activity, bought from SIGMA-ALDRICH or produced in a molecular biological way”, the “rate constant of the foldback of RNAse T1 P39A” value with RNAse T1 P39A is listed as 9.77×10^−4 -s. Further, in data set [2] (20 μM DnaK), the “change of the relative intensity of the Ala-Tyr cross signal (in words)” value is recorded as “nearly doubles” and the “influence on the cis/trans isomerisation rate of the Tyr-Ala peptide bond (in words)” value was “no influence”. In data set [2] (20 μM addition), the “relative intensity of the cross signal of the peptide bond Ala-Tyr” value amounted to 6.37 ± 0.57 and the “relative intensity of the cross signal of the peptide bond Tyr-Ala” value came out at 3.39 ± 0.45. In addition, the “rate constant (kobs) of the cis/trans isomerisation of Ala-Leu” value in data set [1] (624 nM DnaK, 1.66 mM Ala-Leu, pH 7.6, 25° C., non-catalysed reaction 0.36 s^−1) amounted to 0.55 s⁻¹. Also, in data set [1] (624 nM DnaK, without DnaK about 20 seconds), the “time until the conformation equilibrium occurs” value is reported as “less than 10 seconds”. Besides, the “influence on the peptidyl-prolyl cis/trans isomerisation rate of the substrate (in words)” value in data set [3] is reported as “did not show a visible influence on the cis/trans isomerisation rate of the substrate”.

As for “FKBP12: peptidyl-prolyl cis/trans isomerase from SIGMA-ALDRICH”, in data set [2] (20 μM addition), the “catalysis of the cis/trans isomerisation of the Ala-Tyr and Tyr-Ala peptide bonds (in words)” value is on record as “neither catalyse”; the “relative intensity of the cross signal of the peptide bond Ala-Tyr” value is reported as 3.94 ± 0.87; the “relative intensity of the cross signal of the peptide bond Tyr-Ala” value amounted to 2.68 ± 0.75.

For the compound “bovine serum albumin: purified reference protein (SIGMA-ALDRICH)”, in data set [1] (1 μM purified protein instead of Cyp18), the “catalysis of the cis/trans isomerisation of the dipeptide Ala-Leu (in words)” value was “not able to catalyse the cis/trans isomerisation of the dipeptide”.

What is called IC50 is the concentration that inhibits the measured activity by half. A low value points to greater potency in that assay.
